Data published in patent US20240050392A1, “COMPOSITIONS AND METHODS FOR IMPROVED TREATMENT OF PLATINUM-BASED CHEMOTHERAPEUTIC RESISTANT TUMORS” (THE REGENTS OF THE UNIVERSITY OF THE COLORADO, A BODY …, priority 2021, published 2024).

Tests used:
[1] = active form, accumulates in cells; cited from earlier work
[2] = system: KU1919 and T24 cells; test: Intracellular carboplatin measurements with NPEPPS and LRRC8A knockdown; assay type: cell-based, human; conditions: KU1919 and T24 parental and GemCis cells
[3] = system: KU1919-GemCis and KU1919 parental cells; test: Drug dose response with NPEPPS knockdown or overexpression; assay type: cell-based, human
[4] = system: KU1919, T24, and TCCSUP GemCis-resistant cells; test: Cell culture dose response (IncuCyte growth inhibition) of tosedostat with gemcitabine and/or cisplatin; assay type: cell-based, human
Description: One feature of NPEPPS is the availability of agents that inhibit its activity. Tosedostat, an orally available M1 aminopeptidase prodrug has antileukemic activity and is readily available for use. […] Tosedostat is antiproliferative, proapoptotic, and has antiangiogenic effects. The response of the KU1919, T24, and TCCSUP GemCis-resistant cells to increasing doses of tosedostat with gemcitabine, cisplatin, and gemcitabine plus cisplatin was measured. (FIGS. 3F-3H).
Cell Line Drug Treatments. Gemcitabine (Sigma) and cisplatin (Sigma) stocks were resuspended in 0.9% saline solution and tosedostat (Sigma and BOC Sciences) was resuspended in DMSO. All stocks solutions were stored protected from light and kept frozen until use. For cell culture dose response, cells were seeded in 96-well tissue culture plates with 500-2000 cells per well depending on growth rate and duration of experiment. Cells were seeded and allowed to attach overnight followed by replacing the media with fresh, pre-warmed media just prior to treatment. Drug dilutions were performed serially and using complete media (IMDM+10% FBS) and the associated drug treatments. Growth inhibition was measured using confluence estimates over time on the IncuCyte ZOOM (Essen Bioscience) over varying amounts of time depending on each experiment. Details for timing and replicates for each experiment are included in their respective figure legends.

[5] = system: bladder tumor-derived organoids; test: Tumor-derived organoid drug screening (alamarBlue viability, reseeding); assay type: cell-based, human
Description: Three independent organoid models derived from patients that failed between 4 to 6 cycles of neoadjuvant gemcitabine plus cisplatin chemotherapy (FIG. 10A). The organoids mimicked the morphological and genomic characteristics of the tumor from which they were derived (FIG. 10B). These organoids were treated with increasing doses of cisplatin and 20 μM of tosedostat.
Tumor-derived Organoids. Culture of the organoids. Human bladder tissue was obtained from the Erasmus MC Bladder Cancer Center, Rotterdam, the Netherlands. Bladder tumor-derived organoids from biopsies obtained through TURBT or cystectomy. Briefly, bladder tissues were washed with Advanced DMEM/F12 (Gibco) supplemented with 10 mM HEPES (Gibco), 1% GlutaMax (Gibco) and 100 μg/ml primocin (InvivoGen), henceforth Ad+++. Tissue was minced and incubated at 37° C. with the digestion solution (collagenase 2.5 mg/ml in EBSS) and isolated cells were passed through […] strainer (Falcon), washed with Ad+++ and seeded in 50 μl drops of BME (R&D system) containing 10000-15000 cells in 24 well suspension plates (Greiner). Bladder tumor organoids were cultured in a culture medium containing Ad+++ supplemented with 1×B-27 (Gibco), 1.25 mM N-acetylcysteine (Sigma), 10 mM nicotinamide, 20 μM TGFβ receptor inhibitor A83-01, 100 ng/ml recombinant human FGF10 (Peprotech), 25 ng/ml recombinant human FGF7 (Peprotech), 12.5 ng/ml recombinant human FGF2 (Peprotech), 10 μM Y27632 Rho Kinase (ROCK) Inhibitor (Sigma) and conditioned media for recombinant Rspondin (2.5% v/v), and Wnt3A (2.5% v/v). The medium was changed every three days. Organoids were passaged at a 1:3 to 1:6 ratio every 7 days using cell dissociation solution-non enzymatic (Sigma) and plated in fresh BME matrix droplets.
Drug screening. Organoids were collected 7 days after passaging, passed through a […] strainer and 1000 organoids were seeded per well of a 48-well plate in BME matrix droplets. After 24 hours cisplatin (Sigma) resuspended in PBS was added at different concentrations (2, 10, 25, and 50 μM) with or without tosedostat (20 μM) (Tocris) resuspended in DMSO. All wells were adjusted to contain less than 0.7% DMSO. Organoids were cultured for the first 6 days in the presence of drugs followed by drug withdrawal, where organoids were grown in organoid culture media for 10 days. The entire content of the wells in different treatment groups was collected, washed and reseeded after disaggregation in fresh BME, and cultured for 6 days. Cell viability was assayed using alamarBlue (Invitrogen) according to the manufacturer's instructions after 6 days of drug incubation, 10 days of drug withdrawal, and 6 days post reseeding. Viability data was normalized using organoid wells treated with vehicle control.

CC(C)C[C@@H](C(=O)N[C@H](C(=O)O)c1ccccc1)[C@H](O)C(=O)NO [CHR-79888]
membrane permeability [1]: poorly membrane-permeable

N.N.O=C([O-])C1(C(=O)[O-])CCC1.[Pt+2] [carboplatin]
NPEPPS-mediated import pattern of carboplatin compared with cisplatin [2]: the same patterns were found

Nc1ccn([C@@H]2O[C@H](CO)[C@@H](O)C2(F)F)c(=O)n1 [gemcitabine]
effect of NPEPPS knockdown on drug response ([3]; KU1919-GemCis cells, stable NPEPPS shRNA knockdown): not gemcitabine alone
effect of NPEPPS overexpression on drug response ([3]; KU1919 parental lines overexpressing NPEPPS): not gemcitabine

CC(C)C[C@@H](C(=O)N[C@H](C(=O)OC1CCCC1)c1ccccc1)[C@H](O)C(=O)NO [tosedostat]
combined effect on cell growth ([4]; increasing doses of tosedostat with cisplatin): strongest combined effect
combined effect on cell growth ([4]; increasing doses of tosedostat with gemcitabine): little to no effect
combined effect on cell growth ([4]; increasing doses of tosedostat with gemcitabine plus cisplatin): strongest combined effect
organoid growth ([5]; 20 μM tosedostat in combination with 2 μM and 10 μM cisplatin): significantly decreased organoid growth
organoid growth ([5]; tosedostat alone, 20 μM): minor effect on organoid growth
